PubChem BioAssay (NCI)
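A five-concentration, 48-hour dose response in 96-well plates underlies each endpoint, interpolated linearly between surrounding concentrations. Definition used: TGI = concentration required for complete inhibition of growth.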

What was measured:
Assay in all cases: DTP human tumour cell line panel, 48 h
KM12 colon = test system: KM12 colon
UACC-62 melanoma = test system: UACC-62 melanoma
RXF-631 renal = test system: RXF-631 renal
SNB-19 CNS = test system: SNB-19 CNS
COLO 205 colon = test system: COLO 205 colon
HCT-116 colon = test system: HCT-116 colon
HT29 colon = test system: HT29 colon
NCI-H226 lung = test system: NCI-H226 lung
NCI-H23 lung = test system: NCI-H23 lung
SK-MEL-28 melanoma = test system: SK-MEL-28 melanoma
SF-295 CNS = test system: SF-295 CNS
SNB-78 CNS = test system: SNB-78 CNS
M14 melanoma = test system: M14 melanoma
SW-620 colon = test system: SW-620 colon
U251 CNS = test system: U251 CNS
CCRF-CEM leukemia = test system: CCRF-CEM leukemia
IGROV1 ovarian = test system: IGROV1 ovarian
NCI-H460 lung = test system: NCI-H460 lung
A498 renal = test system: A498 renal
HOP-18 NSCLC = test system: HOP-18 NSCLC
SK-OV-3 ovarian = test system: SK-OV-3 ovarian
LXFL 529 NSCLC = test system: LXFL 529 NSCLC
DMS 114 small cell lung = test system: DMS 114 small cell lung
KM20L2 colon = test system: KM20L2 colon
EKVX NSCLC = test system: EKVX NSCLC
MALME-3M melanoma = test system: MALME-3M melanoma
SK-MEL-2 melanoma = test system: SK-MEL-2 melanoma
HCC-2998 colon = test system: HCC-2998 colon
SNB-75 CNS = test system: SNB-75 CNS
UO-31 renal = test system: UO-31 renal
CAKI-1 renal = test system: CAKI-1 renal
A549 NSCLC = test system: A549 NSCLC
OVCAR-8 ovarian = test system: OVCAR-8 ovarian
TK-10 renal = test system: TK-10 renal
OVCAR-3 ovarian = test system: OVCAR-3 ovarian
SN12C renal = test system: SN12C renal
ACHN renal = test system: ACHN renal
SK-MEL-5 melanoma = test system: SK-MEL-5 melanoma
HOP-62 NSCLC = test system: HOP-62 NSCLC
K-562 leukemia = test system: K-562 leukemia
NCI-H522 lung = test system: NCI-H522 lung
SF-268 CNS = test system: SF-268 CNS
UACC-257 melanoma = test system: UACC-257 melanoma
RPMI-8226 leukemia = test system: RPMI-8226 leukemia
DLD-1 colon = test system: DLD-1 colon
M19-MEL melanoma = test system: M19-MEL melanoma
MOLT-4 leukemia = test system: MOLT-4 leukemia
HCT-15 colon = test system: HCT-15 colon
HL-60(TB) leukemia = test system: HL-60(TB) leukemia
LOX IMVI melanoma = test system: LOX IMVI melanoma
OVCAR-4 ovarian = test system: OVCAR-4 ovarian
786-0 renal = test system: 786-0 renal
DMS 273 small cell lung = test system: DMS 273 small cell lung
OVCAR-5 ovarian = test system: OVCAR-5 ovarian
SF-539 CNS = test system: SF-539 CNS
XF 498 CNS = test system: XF 498 CNS
HOP-92 NSCLC = test system: HOP-92 NSCLC
RXF 393 renal = test system: RXF 393 renal
SR leukemia = test system: SR leukemia

Measured: TGI

O=c1cc(Cl)nc[nH]1
not listed: SF-539 CNS | XF 498 CNS | HOP-92 NSCLC | RXF 393 renal | SR leukemia
> 100 µM: all other assays above

Cc1ccc(C)c(NC(=O)c2cc(-c3ccc([N+](=O)[O-])cc3)nc(N)n2)c1
not listed: RXF-631 renal | SNB-78 CNS
> 100 µM: all other assays above

COc1ccc(C(c2ccc(C(C)C)cc(=O)c2O)c2c(O)cc3oc(-c4ccccc4)cc(=O)c3c2O)cc1 (centres undefined)
> 100 µM: RXF-631 renal | SK-MEL-28 melanoma | SNB-78 CNS | SW-620 colon | CCRF-CEM leukemia | KM20L2 colon | EKVX NSCLC | SNB-75 CNS | A549 NSCLC | OVCAR-8 ovarian | DLD-1 colon
45.6 µM: ACHN renal
42.9 µM: UACC-62 melanoma
3.53 µM: HOP-92 NSCLC
15.8 µM: NCI-H460 lung
80.4 µM: HOP-18 NSCLC
29.4 µM: SK-MEL-5 melanoma
37.3 µM: RPMI-8226 leukemia
33.6 µM: HCC-2998 colon
22 µM: DMS 273 small cell lung
22.3 µM: U251 CNS
16.7 µM: SNB-19 CNS | SF-295 CNS
25.9 µM: COLO 205 colon
22.2 µM: M14 melanoma
37 µM: XF 498 CNS
62.9 µM: HT29 colon
90.3 µM: TK-10 renal
55.7 µM: NCI-H23 lung
34.2 µM: RXF 393 renal
48.4 µM: MOLT-4 leukemia
19 µM: OVCAR-3 ovarian
21.5 µM: SF-539 CNS
71.6 µM: LXFL 529 NSCLC
26.7 µM: M19-MEL melanoma
28.8 µM: HL-60(TB) leukemia
55.4 µM: SK-OV-3 ovarian
47.7 µM: LOX IMVI melanoma
9.67 µM: HOP-62 NSCLC
70.9 µM: SN12C renal
36.3 µM: CAKI-1 renal
51.5 µM: A498 renal
23 µM: OVCAR-4 ovarian
43.6 µM: HCT-15 colon
64.3 µM: K-562 leukemia
72.4 µM: UACC-257 melanoma
24.4 µM: IGROV1 ovarian
14.1 µM: 786-0 renal
